Test results as given in patent US20240316047A1, “INHIBITORS OF RNA HELICASE DHX9 AND USES THEREOF” (ACCENT THERAPEUTICS, INC., priority 2022, published 2024).

Target: Human recombinant DHX9 protein (Homo sapiens (Human), UniProt Q08211)
Assay: DHX9 ATPase assay (ADP-Glo)
Type: biochemical
Details: for IC50: read-out: DHX9 Biochemical Inflection Point

Sequence of Human recombinant DHX9 protein (Q08211 whole entry): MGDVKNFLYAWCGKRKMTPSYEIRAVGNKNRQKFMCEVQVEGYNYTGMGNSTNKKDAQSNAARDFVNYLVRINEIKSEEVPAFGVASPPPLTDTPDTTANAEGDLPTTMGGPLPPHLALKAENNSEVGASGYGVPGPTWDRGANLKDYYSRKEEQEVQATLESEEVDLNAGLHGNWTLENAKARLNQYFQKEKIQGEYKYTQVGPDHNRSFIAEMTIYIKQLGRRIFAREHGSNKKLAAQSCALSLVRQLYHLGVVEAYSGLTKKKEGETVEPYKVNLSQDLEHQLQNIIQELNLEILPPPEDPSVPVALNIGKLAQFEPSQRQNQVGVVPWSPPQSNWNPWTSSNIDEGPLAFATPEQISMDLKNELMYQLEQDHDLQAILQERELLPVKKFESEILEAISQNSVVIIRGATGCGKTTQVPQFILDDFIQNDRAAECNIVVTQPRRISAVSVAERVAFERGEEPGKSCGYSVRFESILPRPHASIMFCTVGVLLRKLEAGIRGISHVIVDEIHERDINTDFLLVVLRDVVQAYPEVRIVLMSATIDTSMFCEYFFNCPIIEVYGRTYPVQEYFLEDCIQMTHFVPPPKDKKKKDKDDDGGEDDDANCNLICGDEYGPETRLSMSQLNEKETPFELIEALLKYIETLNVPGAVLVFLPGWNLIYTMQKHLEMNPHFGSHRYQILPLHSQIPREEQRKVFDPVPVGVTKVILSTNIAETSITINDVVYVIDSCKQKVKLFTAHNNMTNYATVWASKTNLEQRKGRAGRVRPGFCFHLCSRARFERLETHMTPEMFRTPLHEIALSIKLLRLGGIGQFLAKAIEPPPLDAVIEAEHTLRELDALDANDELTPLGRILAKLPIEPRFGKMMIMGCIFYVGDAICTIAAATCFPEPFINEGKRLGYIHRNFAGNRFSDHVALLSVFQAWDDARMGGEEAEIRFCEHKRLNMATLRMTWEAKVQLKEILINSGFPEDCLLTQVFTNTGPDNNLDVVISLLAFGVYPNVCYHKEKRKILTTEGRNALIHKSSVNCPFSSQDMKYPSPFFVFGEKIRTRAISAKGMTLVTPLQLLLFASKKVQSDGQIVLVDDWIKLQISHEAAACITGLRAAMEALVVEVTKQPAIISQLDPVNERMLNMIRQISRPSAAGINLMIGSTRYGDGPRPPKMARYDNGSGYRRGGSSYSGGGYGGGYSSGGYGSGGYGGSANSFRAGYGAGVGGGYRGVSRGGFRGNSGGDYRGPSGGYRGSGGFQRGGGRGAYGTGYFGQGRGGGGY

| Compound | DHX9 Biochemical Max Inhibition | IC50 |
| --- | --- | --- |
| Cc1cc(C(=O)Nc2cc(Cl)cc(NS(C)(=O)=O)c2)cn1-c1ccc(F)cn1 [Example 390] | 80.4% | 1.5 nM |
| CS(=O)(=O)Nc1cc(Cl)cc(NC(=O)c2cnn(-c3ncccc3OCc3cncc(F)c3)c2)c1 [Example 186] | 87.9% | 3.9 nM |
| Cc1sc(C(=O)Nc2cc(Cl)cc(NS(C)(=O)=O)c2)cc1-c1ncc(F)cc1N1CCC2(CC1)CC2 [Example 507] | 52.9 | 1510 nM |
| CS(=O)(=O)Nc1cc(Cl)cc(NC(=O)c2cccc3ccoc23)c1 [Example 135] | 44.6% | 1070 nM |
| Cn1nc(C(=O)Nc2cc(Cl)cc(NS(C)(=O)=O)c2)cc1-c1ccccn1 [Example 140] | 63.3% | 300 nM |
| CC(=O)NC1CC2(C1)CC(n1cc(C(=O)Nc3cc(Cl)cc(NS(C)(=O)=O)c3)cn1)C2 (stereo not drawn) [Example 310] | 70.3% | 102 nM |
| Cc1sc(C(=O)Nc2cc(Cl)cc(NS(C)(=O)=O)c2)cc1-c1ncc(OC(F)F)cn1 [Example 345] | 77.1% | 33.6 nM |
| Cc1sc(C(=O)Nc2cc(Cl)cc(NS(C)(=O)=O)c2)cc1-c1ccccc1 [Example 11] | 62.7% | 123 nM |
| Cc1cc(C)c2cc(C(=O)Nc3cc(Cl)cc(NS(C)(=O)=O)c3)cn2c1 [Example 328] | 67.6% | 422 nM |
| Cc1sc(C(=O)Nc2cc(Cl)cc(NS(C)(=O)=O)c2)cc1-c1ncc(OC2CCC2)cn1 [Example 452] | 80.5 | 32.9 nM |
| CS(=O)(=O)Nc1cc(Cl)cc(NC(=O)c2cc3c(Cl)cccc3s2)c1 [Example 332] | 61.5% | 4830 nM |
| CS(=O)(=O)Nc1cc(Cl)cc(NC(=O)c2cnn(-c3ncccc3C(F)(F)F)c2)c1 [Example 47] | 64.7% | 269 nM |
| CCS(=O)(=O)Nc1cc(Cl)cc(NC(=O)c2cc(C)n(-c3ncc(F)cc3Cl)c2)c1 [Example 446] | 64.1 | 115 nM |
| CCc1nc2ccc(C(=O)Nc3cc(Cl)cc(NS(C)(=O)=O)c3)cn2c1N(C)C [Example 133] | 41.8% | 13600 nM |
| Cc1sc(C(=O)Nc2cc(Cl)cc(NS(C)(=O)=O)c2)cc1-c1ncccc1OC(C)c1cc(F)cc(F)c1 (single isomer, unassigned) [Example 632] | 71.5 | 241 nM |
| Cc1cc(C(=O)Nc2cc(Cl)cc(NS(C)(=O)=O)c2)cn1C1CCCC1 [Example 282] | 72.4% | 96.4 nM |
| Cn1cc(C(=O)Nc2cc(Cl)cc(NS(C)(=O)=O)c2)cc1Br [Example 83, 5-bromo-N-(3-chloro-5-(methylsulfonamido)phenyl)-1-methyl-1H-pyrrole-3-carboxamide] | 60.7% | 47.8 nM |
| Cn1cc(C(=O)Nc2cc(Cl)cc(NS(C)(=O)=O)c2)cc1-c1ncc(Cl)cn1 [Example 577] | 91.5 | 24.9 nM |
| Cc1cc(N2CCC(F)(F)CC2)cnc1-c1cc(C(=O)Nc2cc(Cl)cc(NS(C)(=O)=O)c2)cn1C [Example 600] | 79.3 | 41.6 nM |
| CS(=O)(=O)Nc1cc(Cl)cc(NC(=O)c2cc3cc(C(F)(F)F)ccc3s2)c1 [Example 326] | 64.5% | 8110 nM |
| CN1CC[C@H](Oc2cnc(-c3cc(C(=O)Nc4cc(Cl)cc(NS(C)(=O)=O)c4)cn3C)c(F)c2)C1 [Example 639, N-(3-chloro-5-methanesulfonamidophenyl)-5-(3-fluoro-5-{[(3S)-1-methylpyrrolidin-3-yl]oxy}pyridin-2-yl)-1-methylpyrrole-3-carboxamide] | 59.7 | 7.7 nM |
| CS(=O)(=O)Nc1cc(Cl)cc(NC(=O)c2cnn(-c3ncccc3-c3cncnc3)c2)c1 [Example 387] | 58.2% | 186 nM |
| CS(=O)(=O)Nc1cc(Cl)cc(NC(=O)c2cnn(-c3ncc(F)cc3OCc3cccc(F)c3)c2)c1 [Example 202] | 72.3% | 12.7 nM |
| Cn1cc(C(=O)Nc2cc(Cl)cc(NS(C)(=O)=O)c2)cc1-c1ncc(N2CCC3(C2)CC3(F)F)cn1 (stereo not drawn) [Example 494] | 55.9 | 26.9 nM |

| Compound | DHX9 Biochemical Max Inhibition | IC50 |
| --- | --- | --- |
| Cc1ncccc1-c1cc(F)cnc1-c1cc(C(=O)Nc2cc(Cl)cc(NS(C)(=O)=O)c2)sc1C [Example 608] | 75.4 | 7.2 nM |
| Cc1cc(C(=O)Nc2cc(Cl)cc(NS(C)(=O)=O)c2)cn1-c1ncc(N2CCC3(C2)CC3(F)F)cc1F (stereo not drawn) [Example 414] | 58.3 | 50.6 nM |
| CS(=O)(=O)Nc1cc(Cl)cc(NC(=O)c2cnn(-c3c(F)cccc3OCc3cncc(F)c3)c2)c1 [Example 718] | 72.7 | 15.7 nM |
| Cc1cc(C(=O)Nc2cc(Cl)cc(NS(C)(=O)=O)c2)cn1-c1ccc(C(F)(F)F)cn1 [Example 443] | 76.6 | 59 nM |
| CS(=O)(=O)Nc1cc(Cl)cc(NC(=O)c2c[nH]c(-c3ncc(F)cc3F)c2)c1 [Example 560] | 59 | 51 nM |
| CNc1cnc(-c2cc(C(=O)Nc3cc(Cl)cc(NS(C)(=O)=O)c3)sc2C)nc1 [Example 616, N-(3-chloro-5-methanesulfonamidophenyl)-5-methyl-4-[5-(methylamino)pyrimidin-2-yl]thiophene-2-carboxamide] | 84.2 | 11.4 nM |
| CS(=O)(=O)Nc1cc(Cl)cc(NC(=O)c2cnn(-c3ncccc3OCc3cccc(F)c3)c2)c1 [Example 65] | 72.6% | 5.5 nM |
| Cc1cc(C(=O)Nc2cc(Cl)cc(NS(C)(=O)=O)c2)cn1-c1ncccc1O [Example 281] | 75.7% | 28 nM |
| Cc1cc(C(=O)Nc2cc(Cl)cc(NS(C)(=O)=O)c2)cn1-c1ncccn1 [Example 59] | 77.5% | 12.7 nM |
| Cc1sc(C(=O)Nc2cc(Cl)cc(NS(=O)(=O)CCO)c2)cc1-c1ncccc1OCc1cncc(F)c1 [Example 626] | 75.7 | 4.2 nM |
| CS(=O)(=O)Nc1cc(Cl)cc(NC(=O)c2cnn(-c3ccc(C4CCOCC4)cn3)c2)c1 [Example 190] | 68.8% | 19.1 nM |
| Cc1sc(C(=O)Nc2cc(Cl)cc(NS(C)(=O)=O)c2)cc1-c1ncc(F)cc1Cl [Example 359] | 68.3% | 54.9 nM |
| CCS(=O)(=O)Nc1cc(Cl)cc(NC(=O)c2cc(-c3ncc(OC(C)C)cn3)c(C)s2)c1 [Example 565] | 60 | 37.1 nM |
| CS(=O)(=O)Nc1cc(Cl)cc(NC(=O)c2cnn(-c3ncccc3OCc3nccs3)c2)c1 [Example 205] | 71.4% | 22.6 nM |
| CS(=O)(=O)Nc1cc(Cl)cc(NC(=O)c2cc(-c3ccccc3)c(CO)s2)c1 [Example 120, N-(3-chloro-5-(methylsulfonamido)phenyl)-5-(hydroxymethyl)-4-phenylthiophene-2-carboxamide] | 72.5% | 8.9 nM |
| COc1cc(F)cnc1-c1cc(C(=O)Nc2cc(Cl)cc(NS(C)(=O)=O)c2)sc1C [Example 351] | 80.6% | 15.5 nM |
| CCS(=O)(=O)Nc1cc(Cl)cc(NC(=O)c2cc(-c3ncc(OC)cc3F)c(C)s2)c1 [Example 360] | 56.5% | 40.9 nM |
| CC(C)Oc1ccc(-c2csc(C(=O)Nc3cc(Cl)cc(NS(C)(=O)=O)c3)c2)nc1 [Example 459] | 65.7 |  |
| CS(=O)(=O)Nc1cc(Cl)cc(NC(=O)c2cc(-c3ncccc3Oc3cccnc3)cs2)c1 [Example 239] | 67.7% | 8 nM |
| CS(=O)(=O)Nc1cc(Cl)cc(NC(=O)c2cc(-c3ccccc3)n(CC(F)(F)F)c2)c1 [Example 80] | 71.2% | 493 nM |
| CS(=O)(=O)Nc1cc(Cl)cc(NC(=O)c2cc(-c3ccccn3)c(C3CC3)s2)c1 [Example 177, N-(3-chloro-5-(methylsulfonamido)phenyl)-5-cyclopropyl-4-(pyridin-2-yl)thiophene-2-carboxamide] | 77% | 21.6 nM |
| Cc1cc(C(=O)Nc2cc(Cl)cc(NS(C)(=O)=O)c2)cn1-c1ccc(N2CCOC(C)(C)C2)cn1 [Example 272] | 71.6% | 5.4 nM |
| Cc1sc(C(=O)Nc2cc(Cl)cc(NS(C)(=O)=O)c2)cc1-c1ncc(C2(O)CN(C)C2)cc1F [Example 681] | 77.5 | 2.4 nM |
